This note sets out measurements from patent publication US10905665B2, “Chemical modulators of signaling pathways and therapeutic use” (Duke University, priority 2015, dated 2021).

The first experiment relates to Wnt/β-catenin transcription. The experiment can be described thus: Wnt-3A-stimulated TOPFlash reporter assay in HEK293 cells. It counts as cell-based. The conditions noted are these: 0.5 μM. How it is done:
Stably transfected cells were seeded in 100 μl of cell growth medium/well in 96-well plates at 100% confluency. Fifty microliters of Wnt-3A conditioned medium containing the chemical compounds to be tested or DMSO was added to each well. After an 8 hour treatment, the cells were washed once with PBS and lysed with 55 μl of Passive Lysis Buffer supplied in the Dual-Luciferase Reporter Assay kit (Promega, Madison, Wis.). Twenty-five microliters of cell lysate was used for measuring luciferase activity in a 96-well plate reader (FluoStar Optima, BMG Labtech, Chicago, Ill.). Data were fit using GraphPad Prism (mean±SEM, n>=2).
Consider `CC(C)C(=O)Oc1ccc(Cl)cc1C(=O)Nc1ccc([N+](=O)[O-])cc1Cl` [Compound 64, 4-chloro-2-((2-chloro-4-nitrophenyl)carbamoyl)phenyl isobutyrate], for which the “Inhibition Wnt/β-catenin transcription TopFlash, % inhibition @ 0.5 μM” value is recorded as 70% inhibition. For `CC(C)(C)OC(=O)CCC(=O)Oc1ccc(Cl)cc1C(=O)Nc1ccc([N+](=O)[O-])cc1Cl` [Compound 65, tert-butyl (4-chloro-2-((2-chloro-4-nitrophenyl)carbamoyl)phenyl) succinate], the “Inhibition Wnt/β-catenin transcription TopFlash, % inhibition @ 0.5 μM” value stood at 60% inhibition. As to `CCCC(CCC)C(=O)Oc1ccc(Cl)cc1C(=O)Nc1ccc([N+](=O)[O-])cc1Cl` [Compound 66, 4-chloro-2-((2-chloro-4-nitrophenyl)carbamoyl)phenyl 2-propylpentanoate], the “Inhibition Wnt/β-catenin transcription TopFlash, % inhibition @ 0.5 μM” value turned out to be 30% inhibition.

Still in this experiment, the particulars now being: 1 μM.
Turning to `Cc1ccc(S(=O)(=O)Nc2ccccc2C(=O)Nc2ccc([N+](=O)[O-])cc2)cc1` [C, 2-((4-methylphenyl)sulfonamido)-N-(4-nitrophenyl)benzamide, reference compound], the “Inhibition Wnt/β-catenin transcription TopFlash, % inhibition @ 1 μM” value was 47% inhibition. On the same count and under the same terms, with `O=C(Nc1ccc(C(F)(F)F)cc1Br)c1cc(Cl)ccc1O` [Compound 28, N-(2-bromo-4-(trifluoromethyl)phenyl)-5-chloro-2-hydroxybenzamide] the figure was 82% inhibition. Still for that read-out and setting: with `O=C(Nc1ccc([N+](=O)[O-])cc1Cl)c1cc(-c2ccccc2)ccc1O` [Compound 41, N-(2-chloro-4-nitrophenyl)-4-hydroxy-[1,1′-biphenyl]-3-carboxamide] the figure was 90% inhibition; with `COc1cc(O)c(C(=O)Nc2ccc([N+](=O)[O-])cc2Cl)cc1Cl` [Compound 54, 5-chloro-N-(2-chloro-4-nitrophenyl)-2-hydroxy-4-methoxybenzamide], 70% inhibition.

The experiment is the same for the next values; noted with them: 3 μM.
Consider `Cc1cc([N+](=O)[O-])ccc1NC(=O)c1cc(Cl)ccc1O` [Compound 26, 5-chloro-2-hydroxy-N-(2-methyl-4-nitrophenyl)benzamide], for which the “Inhibition Wnt/β-catenin transcription TopFlash, % inhibition @ 3 μM” value was 80% inhibition.

The experiment is the same for the next values; noted with them: 5 μM.
Consider `O=C(Nc1ccc(C(F)(F)F)cc1Cl)c1c(O)ccc2ccccc12` [Compound 43, N-(2-chloro-4-(trifluoromethyl)phenyl)-2-hydroxy-1-naphthamide], for which the “Inhibition Wnt/β-catenin transcription TopFlash, % inhibition @ 5 μM” value was found to be 50% inhibition. On the same count and under the same terms, under `O=C(Nc1ccc(C(F)(F)F)cc1Cl)c1cc2ccccc2cc1O` [Compound 44, N-(2-chloro-4-(trifluoromethyl)phenyl)-3-hydroxy-2-naphthamide] stands 80% inhibition; under `O=C(Nc1ccc(C(F)(F)F)cc1Cl)c1ccc2ccccc2c1O` [Compound 45, N-(2-chloro-4-(trifluoromethyl)phenyl)-1-hydroxy-2-naphthamide], 60% inhibition.

The experiment is the same for the next values; noted with them: Homo sapiens, HEK293, 8 h.
Turning to `O=C(Nc1ccc(OCc2ccccc2)c(Cl)c1)c1cc(Cl)ccc1O` [Compound 27, N-(4-(benzyloxy)-3-chlorophenyl)-5-chloro-2-hydroxybenzamide], 2 µM produced 75% inhibition.

Consider `C=CCOc1cc([N+](=O)[O-])ccc1NC(=O)c1cc(Cl)ccc1O` [Compound 30, N-(2-(allyloxy)-4-nitrophenyl)-5-chloro-2-hydroxybenzamide], for which the inhibition (as a rule, the percentage by which the read-out fell short of the control) at 10 µM came out at 98%. The compound `O=CCOc1cc([N+](=O)[O-])ccc1NC(=O)c1cc(Cl)ccc1O` [Compound 31, 5-chloro-2-hydroxy-N-(4-nitro-2-(2-oxoethoxy)phenyl)benzamide] yielded an inhibition at 2 µM of 55%. Take `O=C(Nc1ccc([N+](=O)[O-])c(F)c1)c1cc(Cl)ccc1O` [Compound 32, 5-chloro-N-(3-fluoro-4-nitrophenyl)-2-hydroxybenzamide]: the inhibition at 10 µM came out at 90%. `C#CCOc1cc([N+](=O)[O-])ccc1NC(=O)c1cc(Cl)ccc1O` [Compound 33, 5-chloro-2-hydroxy-N-(4-nitro-2-(prop-2-yn-1-yloxy)phenyl)benzamide] gave an inhibition at 2 µM of 45%. `O=C(Nc1ccc([N+](=O)[O-])c(N2CCOCC2)c1)c1cc(Cl)ccc1O` [Compound 34, 5-chloro-2-hydroxy-N-(3-morpholino-4-nitrophenyl)benzamide] gave an inhibition at 10 µM of 40%. The same measure, in the same setting: under `COc1cc(NC(=O)c2cc(Cl)ccc2O)ccc1[N+](=O)[O-]` [Compound 35, 5-chloro-2-hydroxy-N-(3-methoxy-4-nitrophenyl)benzamide] stands 40%.

As to `O=C(Nc1ccc([N+](=O)[O-])c(Cl)c1)c1cc(Cl)ccc1O` [Compound 36, 5-chloro-N-(3-chloro-4-nitrophenyl)-2-hydroxybenzamide], the inhibition at 2 µM was 90%. Same read-out and setting: with `C#CCOc1cc(N=[N+]=[N-])ccc1NC(=O)c1cc(Cl)ccc1O` [Compound 37, N-(4-azido-2-(prop-2-yn-1-yloxy)phenyl)-5-chloro-2-hydroxybenzamide] the figure was 40%; with `O=C(Nc1ccc(C(F)(F)F)c(Cl)c1)c1cc(Cl)ccc1O` [Compound 38, 5-chloro-N-(3-chloro-4-(trifluoromethyl)phenyl)-2-hydroxybenzamide], 90%; with `C#CCCCCOc1cc([N+](=O)[O-])ccc1NC(=O)c1cc(Cl)ccc1O` [Compound 39, 5-chloro-N-(2-(hex-5-yn-1-yloxy)-4-nitrophenyl)-2-hydroxybenzamide], 80%. Compound `O=C(Nc1ccc([N+](=O)[O-])cc1Cl)c1cc(-c2ccc(F)cc2F)ccc1O` [Compound 42, N-(2-chloro-4-nitrophenyl)-2′,4′-difluoro-4-hydroxy-[1,1′-biphenyl]-3-carboxamide] yielded an inhibition at 2 µM of 90%. `Cc1ccc(S(=O)(=O)Nc2ccc(Br)cc2C(=O)Nc2ccc(C(F)(F)F)cc2)cc1` [Compound 48, 5-bromo-2-((4-methylphenyl)sulfonamido)-N-(4-(trifluoromethyl)phenyl)benzamide] yielded an inhibition at 10 µM of 93%. Still for that read-out and setting: under `CS(=O)(=O)Nc1ccc(Cl)cc1C(=O)Nc1ccc([N+](=O)[O-])cc1Cl` [Compound 51, 5-chloro-N-(2-chloro-4-nitrophenyl)-2-(methylsulfonamido)benzamide] stands 70%. `COc1ccc(C(=O)Nc2ccc([N+](=O)[O-])cc2Cl)c(O)c1` [Compound 53, N-(2-chloro-4-nitrophenyl)-2-hydroxy-4-methoxybenzamide] came in with an inhibition at 2 µM of 70%. Consider `COc1cc(O)c(C(=O)Nc2ccc(F)cc2Cl)cc1Cl` [Compound 55, 5-chloro-N-(2-chloro-4-fluorophenyl)-2-hydroxy-4-methoxybenzamide], for which the inhibition at 10 µM stood at 70%. As to `C=CCOc1cc([N+](=O)[O-])ccc1NC(=O)c1cc(Cl)ccc1OC(C)=O` [Compound 60, 2-((2-(allyloxy)-4-nitrophenyl)carbamoyl)-4-chlorophenyl acetate], the inhibition at 2 µM stood at 80%.

`CCCCCCCCCCCCCCCCCC(=O)Oc1ccc(Cl)cc1C(=O)Nc1ccc([N+](=O)[O-])cc1Cl` [Compound 62, 4-chloro-2-((2-chloro-4-nitrophenyl)carbamoyl)phenyl stearate] yielded an inhibition at 10 µM of 70%.

The experiment is the same for the next values; noted with them: Homo sapiens, HEK293, 8 h, Wnt-3A conditioned medium, 8 hour treatment; read-out: Inhibition Wnt/β-catenin transcription TopFlash IC50.
For `O=C(Nc1c(F)cccc1F)c1cc(Cl)ccc1O` [Compound 21, 5-chloro-N-(2,6-difluorophenyl)-2-hydroxybenzamide], the IC50 was more than 12 µM.

For `O=C(CCCCCNC(=O)CCCCC1SCC2NC(=O)NC21)NCCCCCC(=O)NCCOCCOCCOc1cc([N+](=O)[O-])ccc1NC(=O)c1cc(Cl)ccc1O` (centres unmarked) [Compound 29, 5-chloro-2-hydroxy-N-(4-nitro-2-((10,17,24-trioxo-28-(2-oxohexahydro-1H-thieno[3,4-d]imidazol-4-yl)-3,6-dioxa-9,16,23-triazaoctacosyl)oxy)phenyl)benzamide], the IC50 is more than 12 µM. Still for that read-out and setting: under `O=C(Nc1ccccc1)c1ccc(NC(=O)c2cc(Cl)ccc2O)cc1` [Compound 40, 5-chloro-2-hydroxy-N-(4-(phenylcarbamoyl)phenyl)benzamide] stands 33 µM; under `CCCCCCC(=O)Oc1ccc(Cl)cc1C(=O)Nc1ccc([N+](=O)[O-])cc1Cl` [Compound 63, 4-chloro-2-((2-chloro-4-nitrophenyl)carbamoyl)phenyl heptanoate], 0.5 µM.

Staying with this experiment, now noted: Wnt-3A conditioned medium, 8 hour treatment; read-out: Inhibition Wnt/β-catenin transcription TopFlash IC50.
For `O=C(Nc1ccc([N+](=O)[O-])cc1)c1cc(Cl)ccc1O` [B, 5-chloro-2-hydroxy-N-(4-nitrophenyl)benzamide, reference compound], the IC50 was more than 12 µM.

The same experiment, now with this note: concentration not given.
`COc1cc(O)c(C(=O)Nc2ccc(OCc3ccccc3)c(Cl)c2)cc1OC` [Compound 47, N-(4-(benzyloxy)-3-chlorophenyl)-2-hydroxy-4,5-dimethoxybenzamide]: the “Inhibition Wnt/β-catenin transcription TopFlash, result in words” value is “stimulates”.

The experiment is the same for the next values; noted with them: up to 10 μM.
With `COc1cc(O)c(C(=O)Nc2cccc(Cl)c2)cc1Cl` [Compound 56, 5-chloro-N-(3-chlorophenyl)-2-hydroxy-4-methoxybenzamide], the “Inhibition Wnt/β-catenin transcription TopFlash, result in words” value was “No inhibition”.

Staying with this experiment, now noted: up to 12 μM.
Take `COc1cc(O)c(C(=O)Nc2ccc([N+](=O)[O-])cc2Cl)cc1OC` [Compound 46, N-(2-chloro-4-nitrophenyl)-2-hydroxy-4,5-dimethoxybenzamide]: the “Inhibition Wnt/β-catenin transcription TopFlash, result in words” value is on record as “No inhibit. up”. Still for that read-out and setting: with `O=C(Nc1ccc(C(F)(F)F)cc1)c1cnc2ccccc2c1O` [Compound 49, 4-hydroxy-N-(4-(trifluoromethyl)phenyl)quinoline-3-carboxamide] the entry was “Stimulates up”.
